In data set [1] the target is T1, CCK-2R (Rattus norvegicus, UniProt P30553).
T1 construct: CCK-2R-expressing rat pancreatic cancer cells AR42J; host or cells: AR42J (rat pancreatic cancer cells)
T1 sequence (P30553 1-452): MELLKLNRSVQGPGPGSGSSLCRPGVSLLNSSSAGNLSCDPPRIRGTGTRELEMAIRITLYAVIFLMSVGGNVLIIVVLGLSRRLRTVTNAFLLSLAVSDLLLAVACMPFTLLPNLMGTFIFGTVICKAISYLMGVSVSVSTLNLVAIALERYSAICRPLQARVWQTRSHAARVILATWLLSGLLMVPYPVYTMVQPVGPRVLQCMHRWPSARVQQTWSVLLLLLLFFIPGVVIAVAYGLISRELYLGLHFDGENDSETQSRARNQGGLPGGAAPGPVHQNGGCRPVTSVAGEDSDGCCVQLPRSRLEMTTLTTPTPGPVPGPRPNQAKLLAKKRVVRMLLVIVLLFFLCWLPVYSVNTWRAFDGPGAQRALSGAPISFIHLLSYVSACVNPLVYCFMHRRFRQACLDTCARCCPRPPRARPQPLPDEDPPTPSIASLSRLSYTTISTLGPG
Also noted: method as in earlier work. As to conditions: natLu-labeled peptide; AR42J cells, [177Lu]Lu-DOTA-PP-F11N 0.3 pmol/well, 3 h, 37 °C, n = 3; identical conditions; cited from earlier work.

A short description of data set [2]: µPET/CT imaging in an AR42J tumor-bearing mouse. In kind it is in vivo, mice. The following applies: 100 pmol, n = 1. As for the experimental part:
Biodistribution studies (n = 4) and µSPECT/CT as well as µPET/CT imaging (using a MILabs VECTor^4 small-animal SPECT/PET/OI/CT device, MILabs, Utrecht, The Netherlands) at 1 and 24 h p.i. were carried out as previously published. For all ^177Lu-labeled compounds, approximately 2–3 MBq (100 pmol)—and for the ^18F-labeled analog, approximately 7 MBq (100 pmol)—were administered. For all competition studies, 2.90 mg/kg (40 nmol) of [^natLu]Lu-DOTA-MGS5 (10^−3 M in phosphate-buffered saline) were co-administered.
Moreover, the chemically identical compound, [^18F]F-[^natLu]Lu-DOTA-rhCCK-18, was evaluated via µPET/CT in a AR42J tumor-bearing mouse (n = 1), which confirmed high tumor and kidney uptake at 1 h p.i. and low overall off-target accumulation (Figure 5, right).
Figure 5 Representative µSPECT/CT images of [^177Lu]Lu-DOTA-rhCCK-18 at 1 and 24 h p.i. (left) and µPET/CT image of [^18F]F-[^natLu]Lu-DOTA-rhCCK-18 at 1 h p.i. (right) in AR42J tumor-bearing CB17- SCID mice (100 pmol each). Tumors (T) are indicated by white arrows. Kidney (K) and tumor (T) values are depicted at the bottom. TEXT PRINTED IN THE PICTURE: [^177Lu]Lu-DOTA-rhCCK-18: T: 24.1 %ID/g (1 h p.i.); K: 97.2 %ID/g (1 h p.i.); T: 25.4 %ID/g (24 h p.i.); K: 134 %ID/g (24 h p.i.) | [^18F]F-[^natLu]Lu-DOTA-rhCCK-18: T: 31.2 %ID/g (1 h p.i.); K: 146 %ID/g (1 h p.i.)

Data set [3] in a line: Lipophilicity (logD7.4), n-octanol/PBS pH 7.4. In kind it is physicochemical. As for the experimental part: Cell-based experiments and determination of lipophilicity (logD7.4) were performed as previously published. A detailed description of the in vitro experiments is provided in the Supplementary Materials.
Cell Culture. CCK-2R-expressing rat pancreatic cancer cells AR42J (CLS GmbH, Eppelheim, Germany) were cultivated in monolayers in CELLSTAR® cell culture flasks acquired from Greiner Bio-One GmbH (Frickenhausen, Germany) at 37°C in a humidified atmosphere (5% CO2) using a HERAcell 150i-Incubator (Thermo Fisher Scientific Inc., Waltham, United States). The nutrient medium RPMI 1640 medium, supplemented with 5 mM L-Gln 5 mL non-essential amino acids (100×) and 10% FCS, was used. Furthermore, a Dulbecco’s PBS solution with 0.1% EDTA (v/v) was applied to detach the cells for cell passaging. The detached cells were counted using a Neubauer hemocytometer (Paul Marienfeld, Lauda-Königshofen, Germany). In addition, all operations under sterile conditions were accomplished using a MSC-Advantage safety workbench (Thermo Fisher Scientific Inc., Waltham, United States).
Determination of IC50. AR42J cells (2.0 × 10^5 cells/well) were seeded into 24-well plates 24 ± 2 h prior to testing using 1 mL of nutrient medium (RPMI 1640, 5 mM L-Gln, 5 mL non-essential amino acids (100×), 10% FCS). Cells were incubated at 37°C in a humidified atmosphere (5% CO2).
After the removal of the medium, each well was washed with 500 μL PBS. For the cell-based assay, 200 μL of the nutrient medium (+5% BSA), [ 177Lu]Lu-DOTA-PP-F11N (25 μL, 0.3 pmol) as a radiolabeled reference and 25 μL of the peptide of interest in increasing concentrations (10 −10 to 10−4 M) were added to the cells in triplicate. Thereafter, the assay was incubated for 3 h at 37°C and the supernatant was collected. The cells were washed with 300 μL PBS and the collected supernatant fractions were unified.
After lysis of the cells with NaOH (300 μL, 1 N) for 15 min, the respective wells were washed with NaOH (300 μ L, 1 N) and both fractions were unified. The radioactivity of both the supernatant and the lysed fractions were quantified using a γ-counter (PerkinElmer Inc., Waltham, United States). The obtained data were evaluated via the GraphPad PRISM software (GraphPad Software Inc., La Jolla, United States), which calculates the half-maximal inhibitory concentration (IC50) of the peptides.
Internalization Studies. For the determination of the internalization kinetics of the various peptides, AR42J cells (3.0 × 10^5 cells/well) were seeded into polylysine-coated 24-well plates, adding 1 mL of nutrient medium. Afterwards, the cells were incubated for 24 ± 2 h at 37°C in a humidified atmosphere […]
On the day of the experiment, the medium was removed, and each well was washed with nutrient medium (300 μL). Afterwards 200 μL of nutrient medium, 25 μL of the 177Lu-labeled peptide (0.3 pmol, n = 6) and either 25 μL of nutrient medium for internalization studies ( n = 3) or 25 μL of [natLu]Lu-DOTA-PP-F11N (10 μmol) for competition studies ( n = 3) were added. Thereafter, the assay was incubated for various time points (1, 2, 4 and 6 h) at 37°C in a humidified atmosphere (5% CO2). After incubation, the cells were put on ice for at least 1 min to stop internalization kinetics and the supernatant was collected. Then, the cells were washed with an ice-cold nutrient medium (300 μL) and both fractions were unified. […] The radioactivity of the supernatant, the acid wash and the lysed fractions were quantified using a γ-counter. […]

The target of data set [4] is T1, CCK-2R. Also noted: method as in earlier work. The following applies: % of applied activity, 37 °C, AR42J cells, identical conditions, cited from earlier work.
In data set [5] the test system is AR42J tumor-bearing CB17-SCID mice. As to conditions: 24 h p.i., 100 pmol; cited from earlier work.

Read-outs that look alike come from different tables or passages of the source. Bounds are passed on as bounds.

On to `CCCC[C@H](NC(=O)[C@H](Cc1c[nH]c2ccccc12)NC(=O)CNC(=O)[C@H](Cc1ccc(O)cc1)NC(=O)[C@H](C)NC(=O)CC[C@@H](NC(=O)CC[C@@H](NC(=O)CC[C@@H](NC(=O)CC[C@@H](NC(=O)CC[C@@H](NC(=O)CC[C@@H](NC(=O)CC[C@@H](NC(=O)CC[C@@H](NC(=O)[C@@H](CNC(=O)c1ccc([Si](F)(C(C)(C)C)C(C)(C)C)cc1)NC(=O)CC[C@H](C(=O)O)N1CCN(CC(=O)O)CCN(CC(=O)O)CCN(CC(=O)O)CC1)C(=O)O)C(=O)O)C(=O)O)C(=O)O)C(=O)O)C(=O)O)C(=O)O)C(=O)O)C(=O)N[C@@H](CC(=O)O)C(=O)N[C@@H](Cc1ccccc1)C(N)=O` [(R)-DOTAGA-rhCCK-18], for which the IC50 – broadly, the concentration that gives 50% inhibition – at CCK-2R [1] is 20.4 ± 2 nM.
For `CCCC[C@H](NC(=O)[C@H](Cc1c[nH]c2ccccc12)NC(=O)CNC(=O)[C@H](Cc1ccc(O)cc1)NC(=O)[C@H](C)NC(=O)CC[C@@H](NC(=O)CC[C@@H](NC(=O)CC[C@@H](NC(=O)CC[C@@H](NC(=O)CC[C@@H](NC(=O)CC[C@@H](NC(=O)CC[C@@H](NC(=O)CC[C@@H](NC(=O)[C@@H](CNC(=O)c1ccc([Si](F)(C(C)(C)C)C(C)(C)C)cc1)NC(=O)CN1CCN(CC(=O)O)CCN(CC(=O)O)CCN(CC(=O)O)CC1)C(=O)O)C(=O)O)C(=O)O)C(=O)O)C(=O)O)C(=O)O)C(=O)O)C(=O)O)C(=O)N[C@@H](CC(=O)O)C(=O)N[C@@H](Cc1ccccc1)C(N)=O` [[^18F]F-[^natLu]Lu-DOTA-rhCCK-18, metal not drawn], the tissue uptake at 1 h in data set [2] (CB17-SCID, mouse, kidney, total radioactivity, 1 h p.i., read-out: Kidney (K) value, µPET/CT) amounted to 146 %ID/g; in data set [2] (CB17-SCID, mouse, tumor, total radioactivity, 1 h p.i., read-out: Tumor (T) value, µPET/CT), 31.2 %ID/g; in data set [2] (bone, µPET/CT mouse, read-out: bone uptake), 1.69 %ID/g.
For the compound `CCCC[C@H](NC(=O)[C@H](Cc1c[nH]c2ccccc12)NC(=O)CNC(=O)[C@H](Cc1ccc(O)cc1)NC(=O)[C@H](C)NC(=O)CC[C@@H](NC(=O)CC[C@@H](NC(=O)CC[C@@H](NC(=O)CC[C@@H](NC(=O)CC[C@@H](NC(=O)CC[C@@H](NC(=O)CC[C@@H](NC(=O)CC[C@@H](NC(=O)[C@@H](CNC(=O)c1ccc([Si](F)(C(C)(C)C)C(C)(C)C)cc1)NC(=O)CN1CCN(CC(=O)O)CCN(CC(=O)O)CCN(CC(=O)O)CC1)C(=O)O)C(=O)O)C(=O)O)C(=O)O)C(=O)O)C(=O)O)C(=O)O)C(=O)O)C(=O)N[C@@H](CC(=O)O)C(=O)N[C@@H](Cc1ccccc1)C(N)=O` [[^18F]F-[^natLu]Lu-DOTA-rhCCK-18] [metal not drawn], in data set [3] (n-octanol/PBS pH 7.4), the logD7.4 was −2.71 ± 0.04.
For the compound `CCCC[C@H](NC(=O)[C@H](Cc1c[nH]c2ccccc12)NC(=O)CNC(=O)[C@H](Cc1ccc(O)cc1)NC(=O)[C@H](C)NC(=O)[C@@H](CCC(=O)O)NC(=O)[C@@H](CCC(=O)O)NC(=O)[C@@H](CCC(=O)O)NC(=O)[C@@H](CCC(=O)O)NC(=O)[C@@H](CCC(=O)O)NC(=O)[C@@H](CCC(=O)O)NC(=O)CC[C@H](C(=O)O)N1CCN(CC(=O)O)CCN(CC(=O)O)CCN(CC(=O)O)CC1)C(=O)N[C@@H](CC(=O)O)C(=O)N[C@@H](Cc1ccccc1)C(N)=O` [[^177Lu]Lu-(R)-DOTAGA-PP-F11N, metal not drawn], the logD in data set [3] (pH 7.4) is -3.95 ± 0.06.
As for `CCCC[C@H](NC(=O)[C@H](Cc1c[nH]c2ccccc12)NC(=O)CNC(=O)[C@H](Cc1ccc(O)cc1)NC(=O)[C@H](C)NC(=O)[C@@H](CCC(=O)O)NC(=O)[C@@H](CCC(=O)O)NC(=O)[C@@H](CCC(=O)O)NC(=O)[C@@H](CCC(=O)O)NC(=O)[C@@H](CCC(=O)O)NC(=O)[C@@H](CCC(=O)O)NC(=O)CN1CCN(CC(=O)O)CCN(CC(=O)O)CCN(CC(=O)O)CC1)C(=O)N[C@@H](CC(=O)O)C(=O)N[C@@H](Cc1ccccc1)C(N)=O` [[^177Lu]Lu-DOTA-PP-F11N, metal not drawn], the logD in data set [3] (n-octanol/PBS pH 7.4, read-out: logD7.4) was under -4. The “Internalization Values (%) 1 h” value at CCK-2R [4] (1 h) is recorded as 6.44 ± 0.32%. The “Internalization Values (%) 2 h” value at CCK-2R [4] (2 h) is recorded as 10.1 ± 0.4%. In addition, at CCK-2R [4] (4 h), the “Internalization Values (%) 4 h” value is listed as 17.5 ± 1.0%. In addition, the “Internalization Values (%) 6 h” value at CCK-2R [4] (6 h) is listed as 22.4 ± 0.6%. The “activity uptake in the tumor” value in data set [5] was 1.9 ± 0.8 %ID/g.
